Where a SMILES comes first, the peptide text is derived from it. Bridges are numbered along the chain shown (N, C = ends).
Key:
Format in all cases: cell-based
[1] = molecular target: T1, hNav1.7 (Homo sapiens, UniProt Q15858); test: FLIPR membrane potential assay, hNav1.7; settings: for Selectivity for Nav1.7, Nav subtype 1.7: membrane potential assay, reference subtype
T1 construct: host or cells: HEK293
Method: (§1) HEK293 cells stably expressing hNav1.1, hNav1.2, hNav1.3, hNav1.4, hNav1.5, hNav1.6, hNav1.7 and […] (SB Drug Discovery, Glasgow, UK) were cultured in minimum essential media (MEM) containing 10% v/v FBS supplemented with L-glutamine (2 mM) and selection antibiotics G-418 (0.5 mg/mL), blasticidin (2-4 μg/mL) and zeocin (0.5 mg/mL) as recommended by the manufacturer. CHO cells stably expressing hNav1.8 in a tetracycline-inducible system (Chantest, OH, USA) were cultured in Ham's F-12 containing 10% v/v FBS and selection antibiotics as recommended by the manufacturer. To induce hNav1.8 expression, cells were cultured in the presence of tetracycline (1 μg/mL) for 24 h at 27° C. Cells were grown in a humidified 5% CO2 incubator at 37° C., grown to 70-80% confluence, and passaged every 3-4 days using TrypLE Express (Invitrogen).
(§2) Cells were plated 48 h before the assay on 384-well black walled imaging plates at a density of 10,000 to 15,000 cells per well and were loaded with red membrane potential dye for 30 min at 37° C. (Molecular Devices, CA, USA). One vial of bulk red membrane potential dye was reconstituted to a 10× stock solution with PSS and stored at −20° C. and diluted to 1× solution with PSS on the day of the assay. […] Changes in membrane potential were assessed using the FLIPR^TETRA (excitation 515 to 545 nm, emission 565 to 625 nm) every second for 300 s after adding agonists.

[2] = molecular target: T2, hNav1.8 (Homo sapiens, UniProt Q9Y5Y9); test: FLIPR membrane potential assay, hNav1.8; settings: for Selectivity for Nav1.7, Nav subtype 1.8: membrane potential assay
T2 construct: host or cells: HEK293
Method: as §1, §2

[3] = molecular target: T3, hNav1.3 (Homo sapiens, UniProt Q9NY46); test: FLIPR membrane potential assay, hNav1.3; settings: for Selectivity for Nav1.7, Nav subtype 1.3: membrane potential assay
T3 construct: host or cells: HEK293
Method: as §1, §2

[4] = molecular target: T4, hNav1.6 (Homo sapiens, UniProt Q9UQD0); test: FLIPR membrane potential assay, hNav1.6; settings: for Selectivity for Nav1.7, Nav subtype 1.6: membrane potential assay
T4 construct: host or cells: HEK293
Method: as §1, §2

[5] = molecular target: T5, hNav1.2 (Homo sapiens, UniProt Q99250); test: FLIPR membrane potential assay, hNav1.2; settings: for Selectivity for Nav1.7, Nav subtype 1.2: membrane potential assay
T5 construct: host or cells: HEK293
Method: as §1, §2

[6] = molecular target: T6, hNav1.1 (Homo sapiens, UniProt P35498); test: FLIPR membrane potential assay, hNav1.1; settings: for Selectivity for Nav1.7, Nav subtype 1.1: membrane potential assay
T6 construct: host or cells: HEK293
Method: as §1, §2

[7] = molecular target: T7, hNav1.5 (Homo sapiens, UniProt Q14524); test: FLIPR membrane potential assay, hNav1.5; settings: for Selectivity for Nav1.7, Nav subtype 1.5: membrane potential assay
T7 construct: host or cells: HEK293
Method: as §1, §2

[8] = molecular target: T8, hNav1.4 (Homo sapiens, UniProt P35499); test: FLIPR membrane potential assay, hNav1.4; settings: for Selectivity for Nav1.7, Nav subtype 1.4: membrane potential assay
T8 construct: host or cells: HEK293
Method: as §1, §2

T2 sequence (Q9Y5Y9 whole entry): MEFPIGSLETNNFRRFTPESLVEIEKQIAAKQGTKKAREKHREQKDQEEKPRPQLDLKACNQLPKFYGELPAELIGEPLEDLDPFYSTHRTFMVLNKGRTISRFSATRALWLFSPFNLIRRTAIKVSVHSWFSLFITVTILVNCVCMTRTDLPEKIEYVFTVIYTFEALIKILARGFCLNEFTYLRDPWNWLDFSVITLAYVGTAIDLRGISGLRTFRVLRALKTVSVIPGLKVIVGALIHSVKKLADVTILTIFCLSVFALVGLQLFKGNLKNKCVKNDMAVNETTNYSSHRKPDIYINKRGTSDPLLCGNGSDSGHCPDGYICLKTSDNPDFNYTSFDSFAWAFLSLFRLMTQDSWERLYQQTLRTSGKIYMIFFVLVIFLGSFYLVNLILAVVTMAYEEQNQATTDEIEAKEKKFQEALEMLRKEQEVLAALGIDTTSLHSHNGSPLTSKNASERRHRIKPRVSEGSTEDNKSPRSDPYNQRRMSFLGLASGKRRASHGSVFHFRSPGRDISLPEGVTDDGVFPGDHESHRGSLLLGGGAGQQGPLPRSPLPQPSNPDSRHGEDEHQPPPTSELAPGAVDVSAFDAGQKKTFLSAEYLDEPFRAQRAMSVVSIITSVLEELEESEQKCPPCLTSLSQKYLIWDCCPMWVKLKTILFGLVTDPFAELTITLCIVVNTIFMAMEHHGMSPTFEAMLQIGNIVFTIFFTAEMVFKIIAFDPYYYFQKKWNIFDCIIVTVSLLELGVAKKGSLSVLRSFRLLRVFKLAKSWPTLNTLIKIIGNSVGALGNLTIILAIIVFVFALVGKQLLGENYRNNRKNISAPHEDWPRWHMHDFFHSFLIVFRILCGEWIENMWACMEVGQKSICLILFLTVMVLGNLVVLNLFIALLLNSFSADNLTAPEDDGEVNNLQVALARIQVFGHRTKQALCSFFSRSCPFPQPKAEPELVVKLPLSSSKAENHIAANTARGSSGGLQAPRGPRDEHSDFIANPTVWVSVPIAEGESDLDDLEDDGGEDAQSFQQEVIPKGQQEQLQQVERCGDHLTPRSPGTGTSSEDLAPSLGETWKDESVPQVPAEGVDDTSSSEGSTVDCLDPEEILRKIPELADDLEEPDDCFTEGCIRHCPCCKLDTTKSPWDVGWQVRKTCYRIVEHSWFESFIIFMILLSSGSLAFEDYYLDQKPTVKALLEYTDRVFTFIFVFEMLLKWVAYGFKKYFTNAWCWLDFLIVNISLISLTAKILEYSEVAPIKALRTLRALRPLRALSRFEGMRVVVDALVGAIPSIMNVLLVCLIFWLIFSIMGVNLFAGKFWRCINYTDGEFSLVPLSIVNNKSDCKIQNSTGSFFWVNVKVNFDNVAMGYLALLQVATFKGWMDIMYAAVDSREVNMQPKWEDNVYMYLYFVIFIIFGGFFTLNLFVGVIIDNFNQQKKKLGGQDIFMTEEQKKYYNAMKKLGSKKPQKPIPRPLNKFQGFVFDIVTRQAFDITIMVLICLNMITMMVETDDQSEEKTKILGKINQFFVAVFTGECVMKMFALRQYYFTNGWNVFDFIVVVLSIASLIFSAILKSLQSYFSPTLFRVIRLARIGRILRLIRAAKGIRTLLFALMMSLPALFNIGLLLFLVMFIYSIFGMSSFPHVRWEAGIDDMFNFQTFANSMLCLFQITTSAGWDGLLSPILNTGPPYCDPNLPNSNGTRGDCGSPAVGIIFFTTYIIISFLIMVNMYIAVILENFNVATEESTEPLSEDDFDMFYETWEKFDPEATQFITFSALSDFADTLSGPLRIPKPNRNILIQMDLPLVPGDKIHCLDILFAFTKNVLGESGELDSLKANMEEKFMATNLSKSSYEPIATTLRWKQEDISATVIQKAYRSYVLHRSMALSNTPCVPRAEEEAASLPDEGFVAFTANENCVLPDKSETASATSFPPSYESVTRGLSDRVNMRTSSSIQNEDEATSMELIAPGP
T8 sequence (P35499 whole entry): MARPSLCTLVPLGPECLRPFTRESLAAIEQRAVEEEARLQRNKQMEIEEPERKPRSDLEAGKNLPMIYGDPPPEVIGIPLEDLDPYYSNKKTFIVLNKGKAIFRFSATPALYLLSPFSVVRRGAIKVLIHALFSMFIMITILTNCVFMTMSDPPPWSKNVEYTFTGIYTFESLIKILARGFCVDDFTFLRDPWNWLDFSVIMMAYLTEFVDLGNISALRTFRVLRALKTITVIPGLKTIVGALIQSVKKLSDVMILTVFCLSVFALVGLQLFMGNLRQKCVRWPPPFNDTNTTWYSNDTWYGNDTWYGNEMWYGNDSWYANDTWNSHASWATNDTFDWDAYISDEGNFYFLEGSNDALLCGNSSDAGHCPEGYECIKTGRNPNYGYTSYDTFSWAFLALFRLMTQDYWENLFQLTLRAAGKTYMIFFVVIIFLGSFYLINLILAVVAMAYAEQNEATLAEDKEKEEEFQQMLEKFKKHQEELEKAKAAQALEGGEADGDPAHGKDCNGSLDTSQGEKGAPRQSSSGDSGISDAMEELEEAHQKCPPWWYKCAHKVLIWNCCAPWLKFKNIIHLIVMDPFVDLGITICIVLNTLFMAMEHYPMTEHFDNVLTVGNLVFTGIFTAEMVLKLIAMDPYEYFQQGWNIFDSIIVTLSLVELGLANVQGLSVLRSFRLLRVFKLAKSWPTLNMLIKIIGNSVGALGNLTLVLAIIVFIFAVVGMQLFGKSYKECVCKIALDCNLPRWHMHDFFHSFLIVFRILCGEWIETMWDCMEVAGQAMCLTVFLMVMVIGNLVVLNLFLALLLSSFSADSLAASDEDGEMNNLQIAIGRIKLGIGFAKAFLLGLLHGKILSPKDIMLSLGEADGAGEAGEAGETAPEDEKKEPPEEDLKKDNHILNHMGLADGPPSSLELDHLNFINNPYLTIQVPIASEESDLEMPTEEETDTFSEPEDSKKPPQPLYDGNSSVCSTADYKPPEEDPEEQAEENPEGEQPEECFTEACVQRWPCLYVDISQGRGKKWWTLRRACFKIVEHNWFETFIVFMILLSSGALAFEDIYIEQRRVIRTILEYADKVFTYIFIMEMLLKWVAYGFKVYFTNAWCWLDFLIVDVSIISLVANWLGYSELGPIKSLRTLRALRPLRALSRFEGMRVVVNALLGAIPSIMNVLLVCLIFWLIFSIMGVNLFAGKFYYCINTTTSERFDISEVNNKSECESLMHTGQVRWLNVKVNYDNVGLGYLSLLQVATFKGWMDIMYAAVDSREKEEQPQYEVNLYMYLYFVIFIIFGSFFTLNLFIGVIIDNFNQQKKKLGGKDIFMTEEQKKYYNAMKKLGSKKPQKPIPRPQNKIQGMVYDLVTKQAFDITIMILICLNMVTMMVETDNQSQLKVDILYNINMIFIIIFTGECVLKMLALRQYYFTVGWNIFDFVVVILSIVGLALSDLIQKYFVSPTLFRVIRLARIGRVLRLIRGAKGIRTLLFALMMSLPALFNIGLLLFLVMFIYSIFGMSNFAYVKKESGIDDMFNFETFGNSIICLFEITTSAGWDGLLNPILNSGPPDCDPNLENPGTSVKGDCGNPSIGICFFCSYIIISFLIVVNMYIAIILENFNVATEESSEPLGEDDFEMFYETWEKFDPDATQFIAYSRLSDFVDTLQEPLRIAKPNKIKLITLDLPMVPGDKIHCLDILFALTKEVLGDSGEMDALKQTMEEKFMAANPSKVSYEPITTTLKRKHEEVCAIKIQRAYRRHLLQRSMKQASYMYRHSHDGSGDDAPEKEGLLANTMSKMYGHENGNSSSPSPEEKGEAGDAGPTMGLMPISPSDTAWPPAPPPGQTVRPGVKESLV

Compound | IC50 [1] [µM] | Selectivity for Nav1.7, Nav subtype 1.7 [1] | IC50 [2] [µM] | Selectivity for Nav1.7, Nav subtype 1.8 [2] | IC50 [3] [µM] | Selectivity for Nav1.7, Nav subtype 1.3 [3] | IC50 [4] [µM] | Selectivity for Nav1.7, Nav subtype 1.6 [4] | IC50 [5] [µM] | Selectivity for Nav1.7, Nav subtype 1.2 [5] | IC50 [6] [µM] | Selectivity for Nav1.7, Nav subtype 1.1 [6] | IC50 [7] [µM] | Selectivity for Nav1.7, Nav subtype 1.5 [7] | IC50 [8] [µM] | Selectivity for Nav1.7, Nav subtype 1.4 [8]
CSCC[C@@H]1NC(=O)[C@H](Cc2ccc(O)cc2)NC(=O)[C@H](CCCNC(=N)N)NC(=O)[C@@H](NC(=O)[C@@H](N)CC(=O)O)CSSC[C@@H]2NC(=O)[C@@H]3CSSC[C@@H](C(=O)N[C@@H](C)C(=O)N[C@@H](Cc4c[nH]c5ccccc45)C(=O)N[C@@H](CC(=O)O)C(=O)N[C@@H](Cc4ccccc4)C(=O)N[C@H](C(=O)N[C@@H](Cc4ccccc4)C(=O)N[C@H](C(=O)O)[C@@H](C)O)[C@@H](C)O)NC(=O)[C@H](Cc4ccc(O)cc4)NC(=O)[C@H](CCCCN)NC(=O)[C@H](CCSC)NC(=O)[C@H](CCCCN)NC(=O)[C@H](CCCNC(=N)N)NC(=O)[C@H](CCCCN)NC(=O)[C@H](CSSC[C@H](NC(=O)[C@H](CC(=O)O)NC(=O)CNC(=O)[C@H](Cc4ccccc4)NC1=O)C(=O)N[C@@H](CCCCN)C(=O)N[C@@H](CCCCN)C(=O)N[C@@H](CC(=O)O)C(=O)N[C@@H](CCC(=O)O)C(=O)N[C@@H](CC(=O)O)C(=O)N3)NC(=O)CNC(=O)[C@H](CC(C)C)NC(=O)[C@H](Cc1c[nH]cn1)NC(=O)[C@H](CCCCN)NC2=O [[E10K]Pnc1a] (H-DCRYMFGDCKKDEDCCKHLGCKRKMKYCAWDFTFT-OH; disulfide 2-16, 9-21, 15-28) | 0.041 | 1 | > 30 | >700 | 5 | 128 | 0.82 | 20 | 0.172 | 4 | 0.384 | 9 | 13 | 326 | 2 | 49
CSCC[C@@H]1NC(=O)[C@H](C)NC(=O)[C@H](CCCNC(=N)N)NC(=O)[C@@H](NC(=O)[C@@H](N)CC(=O)O)CSSC[C@@H]2NC(=O)[C@@H]3CSSC[C@@H](C(=O)N[C@@H](C)C(=O)N[C@@H](Cc4c[nH]c5ccccc45)C(=O)N[C@@H](CC(=O)O)C(=O)N[C@@H](Cc4ccccc4)C(=O)N[C@H](C(=O)N[C@@H](Cc4ccccc4)C(=O)N[C@H](C(=O)O)[C@@H](C)O)[C@@H](C)O)NC(=O)[C@H](Cc4ccc(O)cc4)NC(=O)[C@H](CCCCN)NC(=O)[C@H](CCSC)NC(=O)[C@H](CCCCN)NC(=O)[C@H](CCCNC(=N)N)NC(=O)[C@H](CCCCN)NC(=O)[C@H](CSSC[C@H](NC(=O)[C@H](CC(=O)O)NC(=O)CNC(=O)[C@H](Cc4ccccc4)NC1=O)C(=O)N[C@@H](CCC(=O)O)C(=O)N[C@@H](CCCCN)C(=O)N[C@@H](CC(=O)O)C(=O)N[C@@H](CCC(=O)O)C(=O)N[C@@H](CC(=O)O)C(=O)N3)NC(=O)CNC(=O)[C@H](CC(C)C)NC(=O)[C@H](Cc1c[nH]cn1)NC(=O)[C@H](CCCCN)NC2=O [[Y4A]Pnc1a] (H-DCRAMFGDCEKDEDCCKHLGCKRKMKYCAWDFTFT-OH; disulfide 2-16, 9-21, 15-28) | 0.934 | 1 | > 30 | >30 | 20 | 22 | > 30 | >30 | 8 | 8 | 17 | 19 | 18 | 20 | 12 | 12
CSCC[C@@H]1NC(=O)[C@H](Cc2ccc(O)cc2)NC(=O)[C@H](CCCNC(=N)N)NC(=O)[C@@H](NC(=O)[C@@H](N)CC(=O)O)CSSC[C@@H]2NC(=O)[C@@H]3CSSC[C@@H](C(=O)N[C@@H](C)C(=O)N[C@@H](Cc4c[nH]c5ccccc45)C(=O)N[C@@H](CC(=O)O)C(=O)N[C@@H](Cc4ccccc4)C(=O)N[C@H](C(=O)N[C@@H](Cc4ccccc4)C(=O)N[C@H](C(=O)O)[C@@H](C)O)[C@@H](C)O)NC(=O)[C@H](Cc4ccc(O)cc4)NC(=O)[C@H](CCCCN)NC(=O)[C@H](CCSC)NC(=O)[C@H](CCCCN)NC(=O)[C@H](CCCNC(=N)N)NC(=O)[C@H](CCCCN)NC(=O)[C@H](CSSC[C@H](NC(=O)[C@H](CC(=O)O)NC(=O)CNC(=O)[C@H](Cc4ccccc4)NC1=O)C(=O)N[C@@H](CCC(=O)O)C(=O)N[C@@H](CCCCN)C(=O)N[C@@H](CC(=O)O)C(=O)N[C@@H](CCCCN)C(=O)N[C@@H](CC(=O)O)C(=O)N3)NC(=O)CNC(=O)[C@H](CC(C)C)NC(=O)[C@H](Cc1c[nH]cn1)NC(=O)[C@H](CCCCN)NC2=O [[E13K]Pnc1a] (H-DCRYMFGDCEKDKDCCKHLGCKRKMKYCAWDFTFT-OH; disulfide 2-16, 9-21, 15-28) | – | 1 | > 30 | >300 | 6 | 66 | 1 | 14 | 0.378 | 4 | – | – | > 30 | >300 | 2 | 27
CSCC[C@@H]1NC(=O)[C@H](Cc2ccc(O)cc2)NC(=O)[C@H](CCCNC(=N)N)NC(=O)[C@@H](NC(=O)[C@@H](N)CC(=O)O)CSSC[C@@H]2NC(=O)[C@@H]3CSSC[C@@H](C(=O)N[C@@H](C)C(=O)N[C@@H](Cc4c[nH]c5ccccc45)C(=O)N[C@@H](CC(=O)O)C(=O)N[C@@H](Cc4ccccc4)C(=O)N[C@H](C(=O)N[C@@H](Cc4ccccc4)C(=O)N[C@H](C(N)=O)[C@@H](C)O)[C@@H](C)O)NC(=O)[C@H](Cc4ccc(O)cc4)NC(=O)[C@H](CCCCN)NC(=O)[C@H](CCSC)NC(=O)[C@H](CCCCN)NC(=O)[C@H](CCCNC(=N)N)NC(=O)[C@H](CCCCN)NC(=O)[C@H](CSSC[C@H](NC(=O)[C@H](CC(=O)O)NC(=O)CNC(=O)[C@H](Cc4ccccc4)NC1=O)C(=O)N[C@@H](CCC(=O)O)C(=O)N[C@@H](CCCCN)C(=O)N[C@@H](CC(=O)O)C(=O)N[C@@H](CCC(=O)O)C(=O)N[C@@H](CC(=O)O)C(=O)N3)NC(=O)CNC(=O)[C@H](CC(C)C)NC(=O)[C@H](Cc1c[nH]cn1)NC(=O)[C@H](CCCCN)NC2=O [Pnc1a-CONH2] | – | – | > 30 | – | 7 | – | 20 | – | 3 | – | 8 | – | > 30 | – | 16 | –
CSCC[C@@H]1NC(=O)[C@H](Cc2ccc(O)cc2)NC(=O)[C@H](CCCNC(=N)N)NC(=O)[C@@H](NC(=O)[C@H](CC(=O)O)NC(C)=O)CSSC[C@@H]2NC(=O)[C@@H]3CSSC[C@@H](C(=O)N[C@@H](C)C(=O)N[C@@H](Cc4c[nH]c5ccccc45)C(=O)N[C@@H](CC(=O)O)C(=O)N[C@@H](Cc4ccccc4)C(=O)N[C@H](C(=O)N[C@@H](Cc4ccccc4)C(=O)N[C@H](C(=O)O)[C@@H](C)O)[C@@H](C)O)NC(=O)[C@H](Cc4ccc(O)cc4)NC(=O)[C@H](CCCCN)NC(=O)[C@H](CCSC)NC(=O)[C@H](CCCCN)NC(=O)[C@H](CCCNC(=N)N)NC(=O)[C@H](CCCCN)NC(=O)[C@H](CSSC[C@H](NC(=O)[C@H](CC(=O)O)NC(=O)CNC(=O)[C@H](Cc4ccccc4)NC1=O)C(=O)N[C@@H](CCC(=O)O)C(=O)N[C@@H](CCCCN)C(=O)N[C@@H](CC(=O)O)C(=O)N[C@@H](CCC(=O)O)C(=O)N[C@@H](CC(=O)O)C(=O)N3)NC(=O)CNC(=O)[C@H](CC(C)C)NC(=O)[C@H](Cc1c[nH]cn1)NC(=O)[C@H](CCCCN)NC2=O [Ac-Pnc1a] | – | – | > 30 | – | 8 | – | 16 | – | 5 | – | 23 | – | > 30 | – | 14 | –

From patent US10662229B2, “Spider venom peptides and methods of use for modulating sodium channels” (priority 2016, dated 2020)
